The nature of series [1]: Cytotoxicity against human […] cells after 4 days by MTT assay. It counts as cell-based. On the technique in general: Tetrazolium dyes change colour on reduction, which living cells bring about.
Series [2] relates to Human immunodeficiency virus 1. In words: Inhibition of HIV1 viral replication infected in human C8166 cells assessed as suppression of virion-associated p24 antigen production after 4 days by ELISA. Particulars: Human immunodeficiency virus 1, C8166, 96 h. It counts as functional, organism-based. Background: An ELISA detects its analyte on a solid surface through an enzyme-linked reagent.

In general, CC50 refers to the concentration giving 50% cytotoxicity. Lower therefore signals harm at low concentration. By EC50 is commonly meant the midpoint of the concentration-response curve.

As for `CN1C(=O)[C@H](Cc2ccccc2)NC(=O)/C1=C/c1ccccc1` [DIPHENYLALAZINE A], in series [1], the CC50 at 96 h is greater than 100 µM. In series [2], the EC50 was determined as 27.9 µM.
With `CS[C@@]12C[C@H]3C(=O)CC[C@H](O)[C@H]3N1C(=O)[C@]1(SC)C[C@H]3C(=O)CC[C@H](O)[C@H]3N1C2=O` [EPICOCCIN G], in series [1], the CC50 at 96 h is greater than 100 µM. In addition, the EC50 in series [2] came out at 13.5 µM.
The matching figures for `CS[C@@]12C[C@H]3C(=O)C[C@H](O)[C@H](O)[C@H]3N1C(=O)[C@]1(SC)C[C@H]3C(=O)C[C@H](O)[C@H](O)[C@H]3N1C2=O` [EPICOCCIN H]: greater than 100 µM and 42.2 µM.

(Values after ChEMBL document CHEMBL1153744, “Diketopiperazines from the Cordyceps-colonizing fungus Epicoccum nigrum” (J Nat Prod, 2009).)
